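Method: 48-hour compound exposure of cells in 96-well plates, five concentrations, linear interpolation of endpoints. GI50 = concentration required for 50% inhibition of growth.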 Calls of active or inactive are those of the source. Rule as the data show it: active = GI50 up to about 1.1 µM and inactive = higher.
How the values were obtained:
Experiment in all cases: NCI-60 cell line screen, 48 h
RPMI-8226 = system: RPMI-8226
OVCAR-5 = system: OVCAR-5
HL-60 = system: HL-60
SN12C = system: SN12C
MOLT-4 = system: MOLT-4
MDA-MB-231 = system: MDA-MB-231
NCI-H460 = system: NCI-H460
RXF 393 = system: RXF 393
SR = system: SR
UACC-62 = system: UACC-62
Hs-578T = system: Hs-578T
K562 = system: K562
U-251 = system: U-251
ACHN = system: ACHN
LOX IMVI = system: LOX IMVI
A498 = system: A498
MDA-MB-435 = system: MDA-MB-435
NCI-H226 = system: NCI-H226
OVCAR-4 = system: OVCAR-4

Compound | GI50 (RPMI-8226) | GI50 (OVCAR-5) | GI50 (HL-60) | GI50 (SN12C) | GI50 (MOLT-4) | GI50 (MDA-MB-231) | GI50 (NCI-H460) | GI50 (RXF 393) | GI50 (SR) | GI50 (UACC-62) | GI50 (Hs-578T) | GI50 (K562) | GI50 (U-251) | GI50 (ACHN) | GI50 (LOX IMVI) | GI50 (A498) | GI50 (MDA-MB-435) | GI50 (NCI-H226) | GI50 (OVCAR-4)
CCOC1=C(c2ccccc2)N2CCCCC2O1 (stereo not drawn) | 1.5 µM (inactive) | 3.94 µM (inactive) | 1.5 µM (inactive) | 8.85 µM (inactive) | 4.27 µM (inactive) | 3.61 µM (inactive) | 3.39 µM (inactive) | 7.89 µM (inactive) | 3.71 µM (inactive) | 3.48 µM (inactive) | 6.12 µM (inactive) | 2.03 µM (inactive) | 3.35 µM (inactive) | 4.68 µM (inactive) | 3.77 µM (inactive) | 8.73 µM (inactive) | 3.25 µM (inactive) | 3.42 µM (inactive) | 
COc1ccc([N+](=O)[O-])cc1[I+]c1cc([N+](=O)[O-])ccc1OC | 23.7 µM (inactive) | > 100 µM (inactive) | 20.7 µM (inactive) | 43.5 µM (inactive) |  | > 100 µM (inactive) | 22.5 µM (inactive) | 27.7 µM (inactive) | 12.3 µM (inactive) | 23.2 µM (inactive) | 91.6 µM (inactive) | 35 µM (inactive) | 16.1 µM (inactive) | 74.3 µM (inactive) | 29.4 µM (inactive) | 81.5 µM (inactive) | 21.3 µM (inactive) | 53.2 µM (inactive) | 
COC1OC(Cc2nnc(C)o2)C(OCc2ccccc2)C(OCc2ccccc2)C1OCc1ccccc1 (stereo not drawn) | 32.4 µM (inactive) | 41.2 µM (inactive) | 26.2 µM (inactive) | 28.3 µM (inactive) | 16 µM (inactive) | 36.1 µM (inactive) | 26.4 µM (inactive) | 18.3 µM (inactive) | 13.2 µM (inactive) | 17 µM (inactive) | 43 µM (inactive) | 20.9 µM (inactive) | 38.4 µM (inactive) | 26.6 µM (inactive) | 20.1 µM (inactive) | 50.9 µM (inactive) | 19.7 µM (inactive) | 29.5 µM (inactive) | 41.4 µM (inactive)
COc1cccc(CCN2CCN(CCCc3ccccc3)CC2)c1 | 32.6 µM (inactive) | > 100 µM (inactive) | 61.4 µM (inactive) | > 100 µM (inactive) | 92.3 µM (inactive) | > 100 µM (inactive) | 78 µM (inactive) | 71 µM (inactive) | 30.5 µM (inactive) | > 100 µM (inactive) | > 100 µM (inactive) | 32.1 µM (inactive) | > 100 µM (inactive) | > 100 µM (inactive) | 55.1 µM (inactive) | 61 µM (inactive) | 85.9 µM (inactive) | 71 µM (inactive) | 51.1 µM (inactive)
C[N+](C)(C)C(Cc1c[nH]c(=S)[nH]1)C(=O)O (stereo not drawn) | > 100 µM (inactive) | > 100 µM (inactive) | > 100 µM (inactive) | > 100 µM (inactive) | > 100 µM (inactive) | > 100 µM (inactive) | > 100 µM (inactive) | > 100 µM (inactive) | > 100 µM (inactive) | > 100 µM (inactive) | > 100 µM (inactive) | > 100 µM (inactive) | > 100 µM (inactive) | > 100 µM (inactive) | > 100 µM (inactive) | > 100 µM (inactive) | > 100 µM (inactive) | > 100 µM (inactive) | > 100 µM (inactive)
COCCOC(C)C(=O)C(O)S(=O)(=O)O (stereo not drawn) | > 100 µM (inactive) | > 100 µM (inactive) | > 100 µM (inactive) | > 100 µM (inactive) | > 100 µM (inactive) | > 100 µM (inactive) | > 100 µM (inactive) | > 100 µM (inactive) | > 100 µM (inactive) | > 100 µM (inactive) | > 100 µM (inactive) | > 100 µM (inactive) | > 100 µM (inactive) | > 100 µM (inactive) |  | > 100 µM (inactive) | > 100 µM (inactive) | > 100 µM (inactive) | > 100 µM (inactive)
Cc1cc(CN(Cc2ccccc2)Cc2nc3ccccc3[nH]2)c(O)c(CN(Cc2nc3ccccc3[nH]2)Cc2nc3ccccc3[nH]2)c1 | 4.81 µM (inactive) | 15.2 µM (inactive) | 2.16 µM (inactive) | 8.41 µM (inactive) | 4.26 µM (inactive) | 12.4 µM (inactive) | 3.94 µM (inactive) | 13.5 µM (inactive) | 2.6 µM (inactive) | 3.56 µM (inactive) | 15.6 µM (inactive) | 2.63 µM (inactive) | 13 µM (inactive) | 3.38 µM (inactive) | 3.48 µM (inactive) | 10.2 µM (inactive) | 7.52 µM (inactive) | 3.42 µM (inactive) | 6.01 µM (inactive)
CC[N+](C)(CC)CCC(O)(c1ccccc1)c1ccccc1 | > 100 µM (inactive) | > 100 µM (inactive) | > 100 µM (inactive) | > 100 µM (inactive) | > 100 µM (inactive) | > 100 µM (inactive) | > 100 µM (inactive) | > 100 µM (inactive) | > 100 µM (inactive) | > 100 µM (inactive) | > 100 µM (inactive) | > 100 µM (inactive) | > 100 µM (inactive) | > 100 µM (inactive) | > 100 µM (inactive) | > 100 µM (inactive) | > 100 µM (inactive) | > 100 µM (inactive) | > 100 µM (inactive)
O=C1CC(CC(O)C(O)C(O)CO)CC(=O)N1 (stereo not drawn) | > 100 µM (inactive) | > 100 µM (inactive) | > 100 µM (inactive) | > 100 µM (inactive) | > 100 µM (inactive) | > 100 µM (inactive) | > 100 µM (inactive) | > 100 µM (inactive) | > 100 µM (inactive) |  | > 100 µM (inactive) | > 100 µM (inactive) | > 100 µM (inactive) | > 100 µM (inactive) | > 100 µM (inactive) | > 100 µM (inactive) | > 100 µM (inactive) | > 100 µM (inactive) | > 100 µM (inactive)
O=c1[nH]c(=O)n(C/C=C/CO)nc1Br | > 100 µM (inactive) | > 100 µM (inactive) | > 100 µM (inactive) | > 100 µM (inactive) | > 100 µM (inactive) | > 100 µM (inactive) | > 100 µM (inactive) | > 100 µM (inactive) | > 100 µM (inactive) | > 100 µM (inactive) | > 100 µM (inactive) |  | > 100 µM (inactive) | > 100 µM (inactive) | > 100 µM (inactive) | > 100 µM (inactive) | > 100 µM (inactive) | > 100 µM (inactive) | > 100 µM (inactive)
N#Cc1c(-c2ccc(Cl)cc2)c2c(n(C3OC(CO)C(O)C(O)C3O)c1=S)CCCC2 (stereo not drawn) | 44.3 µM (inactive) | > 100 µM (inactive) | 24.7 µM (inactive) | 68.5 µM (inactive) | 26.1 µM (inactive) | 53.6 µM (inactive) | 54.2 µM (inactive) | > 10 µM (inactive) | 39.2 µM (inactive) |  | > 100 µM (inactive) | 37.8 µM (inactive) | 64.9 µM (inactive) | 79.8 µM (inactive) | 47.2 µM (inactive) | 49.3 µM (inactive) | 54.8 µM (inactive) | > 100 µM (inactive) | 82.2 µM (inactive)
COC(=O)C1=C(N)C2=C(N)Oc3ccccc3C2CC1=C(C#N)C#N (stereo not drawn) | 19.1 µM (inactive) | 27.9 µM (inactive) | 29.2 µM (inactive) | 29 µM (inactive) | 33.4 µM (inactive) | 17.5 µM (inactive) |  | 26 µM (inactive) | 12.6 µM (inactive) | 18.1 µM (inactive) | 27.9 µM (inactive) | 19.6 µM (inactive) | 35.5 µM (inactive) | 24.5 µM (inactive) | 18.8 µM (inactive) | 25.8 µM (inactive) | 34.8 µM (inactive) | 44.3 µM (inactive) | 30.2 µM (inactive)
O=c1[nH]c2ccc(CC(=S)N3CCOCC3)cc2s1 | > 100 µM (inactive) | > 100 µM (inactive) | 53.6 µM (inactive) | > 100 µM (inactive) | > 100 µM (inactive) | > 100 µM (inactive) | > 100 µM (inactive) | > 100 µM (inactive) | > 100 µM (inactive) | > 100 µM (inactive) | > 100 µM (inactive) | > 100 µM (inactive) | > 100 µM (inactive) | > 100 µM (inactive) | > 100 µM (inactive) | > 100 µM (inactive) | > 100 µM (inactive) | > 100 µM (inactive) | 
C=CC(C)(C)c1cc([C@@H]2COc3cc(O)ccc3C2=O)c(O)c(OC)c1OC |  | 17.1 µM (inactive) | 6.75 µM (inactive) | 16.3 µM (inactive) | 7.01 µM (inactive) | 13.5 µM (inactive) | 17.4 µM (inactive) | 0.0173 µM (active) | 8.18 µM (inactive) | 13 µM (inactive) | 16.4 µM (inactive) | 9.66 µM (inactive) | 13.5 µM (inactive) | 16.2 µM (inactive) | 16.6 µM (inactive) | 16.9 µM (inactive) | 6.44 µM (inactive) | 16.5 µM (inactive) | 3.94 µM (inactive)
COc1ccc(/C=C2\N=C3NC(=O)C(N4CCOCC4)=C(N)N3C2=O)cc1 | > 100 µM (inactive) | > 100 µM (inactive) | 48.9 µM (inactive) | > 100 µM (inactive) | > 100 µM (inactive) | > 100 µM (inactive) |  | 46.7 µM (inactive) | 29.9 µM (inactive) |  | 35.7 µM (inactive) | 6.7 µM (inactive) | 53.7 µM (inactive) | 75.9 µM (inactive) | > 100 µM (inactive) | > 100 µM (inactive) | > 100 µM (inactive) | > 100 µM (inactive) | 31.8 µM (inactive)

Source: ChEMBL document CHEMBL1201862, “PubChem BioAssay data set” (2004)
